We go through 11 compounds from BindingDB's records for doi:10.1016/S1074-5521(00)00052-1 (Northwestern University, 2001).

The experiment addresses Beta-lactamase (Escherichia coli (strain K12), UniProt P00811). The experiment is described as follows: Enzyme Inhibition Assay. The conditions noted are these: pH 7. The source says: Enzyme inhibition assay using AmpC or TEM-1 from escherichia coli.

Beta-lactamase, sequence (P00811 whole entry): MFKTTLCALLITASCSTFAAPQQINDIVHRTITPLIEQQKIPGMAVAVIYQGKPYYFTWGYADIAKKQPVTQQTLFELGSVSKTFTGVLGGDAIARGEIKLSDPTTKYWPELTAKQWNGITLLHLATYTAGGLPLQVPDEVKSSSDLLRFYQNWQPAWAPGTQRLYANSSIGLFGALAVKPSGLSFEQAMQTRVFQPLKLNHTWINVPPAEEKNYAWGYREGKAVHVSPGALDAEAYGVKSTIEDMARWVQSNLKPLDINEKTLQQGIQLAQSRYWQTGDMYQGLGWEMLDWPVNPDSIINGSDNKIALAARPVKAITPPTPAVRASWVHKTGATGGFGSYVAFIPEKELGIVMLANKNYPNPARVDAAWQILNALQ

Usually Ki stands for a dissociation constant, usually derived from enzyme kinetics or from competition with a known ligand. A lower Ki goes with tighter binding. Consider `O=CNCB(O)O` [Acylglycineboronic acid, 3], for which the inhibition constant Ki is 4.8 µM. In other words, the single-digit micromolar range. `CC(=O)NCB(O)O` [Acylglycineboronic acid, 5] showed an inhibition constant Ki of 18.5 µM. Then `O=C(Cc1ccccc1)NCB(O)O` [Acylglycineboronic acid, 6], with 0.57 µM. On to `O=C(COc1ccccc1)NCB(O)O` [Acylglycineboronic acid, 7], for which the affinity corresponds to a Ki of 0.7 µM. `CC(Oc1ccccc1)C(=O)NCB(O)O` (stereo unspecified) [Acylglycineboronic acid, 8] yielded a Ki of 0.3 µM. Then `CCOc1ccc2ccccc2c1C(=O)NCB(O)O` [Acylglycineboronic acid, 10], with 0.033 µM; and `O=C(CCl)NCB(O)O` [Acylglycineboronic acid, 12], with 0.24 µM; and `O=C(CSc1ccncc1)NCB(O)O` [Acylglycineboronic acid, 13], with 0.175 µM. In the case of `OB(O)O` [Boric acid] it was 2800 µM; in that of `CB(O)O` [Methylboronic Acid], 1000 µM; in that of `O=C(Cc1cccs1)NCB(O)O` [N-2-THIOPHEN-2-YL-ACETAMIDE BORONIC ACID], 0.32 µM.
